Source: patent US10233191B2, “Fused piperidine amides as modulators of ion channels” (Vertex Pharmaceuticals Incorporated, priority 2013, dated 2019)

Target: T1, NaV 1.7 (Homo sapiens, UniProt Q15858)
T1 construct: expressed in transfected cells; host or cells: HEK cells
Experiment: E-VIPR optical membrane potential assay with electrical stimulation
Assay type: cell-based
Settings: active against one or more sodium channels; assay/subtype not specified in Table 4; read-out: IC50 Binned Activity Data
Source text: E-VIPR Optical Membrane Potential Assay Method with Electrical Stimulation
Sodium channels are voltage-dependent proteins that can be activated by inducing membrane voltage changes by applying electric fields. The electrical stimulation instrument and methods of use are described in Ion Channel Assay Methods PCT/US01/21652, herein incorporated by reference and are referred to as E-VIPR. The instrument comprises a microtiter plate handler, an optical system for exciting the coumarin dye while simultaneously recording the coumarin and oxonol emissions, a waveform generator, a current- or voltage-controlled amplifier, and a device for inserting electrodes in well. Under integrated computer control, this instrument passes user-programmed electrical stimulus protocols to cells within the wells of the microtiter plate.
24 hours before the assay on E-VIPR, HEK cells expressing human NaV subtype, like NaV 1.7, are seeded in 384-well poly-lysine coated plates at 15,000-20,000 cells per well. Other subtypes are performed in an analogous mode in a cell line expressing the NaV of interest. HEK cells are grown in media (exact composition is specific to each cell type and NaV subtype) supplemented with 10% FBS (Fetal Bovine Serum, qualified; GibcoBRL #16140-071) and 1% Pen-Strep (Penicillin-Streptomycin; GibcoBRL #15140-122). Cells are grown in vented cap flasks, in 90% humidity and 10% CO2, to 100% confluence. They are usually split by trypsinization 1:10 or 1:20, depending on scheduling needs, and grown for 2-3 days before the next split.
• 100 mg/mL Pluronic F-127 (Sigma #P2443), in dry DMSO • Compound Plates: 384-well round bottom plate, e.g. Corning 384-well Polypropylene Round Bottom #3656 • Cell Plates: 384-well tissue culture treated plate, e.g. Greiner #781091-1B • 10 mM DiSBAC6(3) (Aurora #00-100-010) in dry DMSO • 10 mM CC2-DMPE (Aurora #00-100-008) in dry DMSO • 200 mM ABSC1 in H2O
Bath1 buffer. Glucose 10 mM (1.8 g/L), Magnesium Chloride (Anhydrous), 1 mM (0.095 g/L), Calcium Chloride, 2 mM (0.222 g/L), HEPES 10 mM (2.38 g/L), Potassium Chloride, 4.5 mM (0.335 g/L), Sodium Chloride 160 mM (9.35 g/L).
Hexyl Dye Solution: Bath1 Buffer+0.5% β-cyclodextrin (make this prior to use, Sigma #C4767), 8 μM CC2-DMPE+2.5 μM DiSBAC6(3). To make the solution Add volume of 10% Pluronic F127 stock equal to volumes of CC2-DMPE+DiSBAC6(3). The order of preparation is first mix Pluronic and CC2-DMPE, then add DiSBAC6(3) while vortexing, then add Bath1+β-Cyclodextrin.
1) Pre-spot compounds (in neat DMSO) into compound plates. Vehicle control (neat DMSO), the positive control (20 mM DMSO stock tetracaine, 125 μM final in assay) and test compounds are added to each well at 160× desired final concentration in neat DMSO. Final compound plate volume will be 80 μL (80-fold intermediate dilution from 1 μL DMSO spot; 160-fold final dilution after transfer to cell plate). Final DMSO concentration for all wells in assay is 0.625%.
2) Prepare Hexyl Dye Solution.
3) Prepare cell plates. On the day of the assay, medium is aspirated and cells are washed three times with 100 μL of Bath1 Solution, maintaining 25 μL residual volume in each well.
4) Dispense 25 μL per well of Hexyl Dye Solution into cell plates. Incubate for 20-35 minutes at room temp or ambient conditions.
5) Dispense 80 μL per well of Bath1 into compound plates. Acid Yellow-17 (1 mM) is added and Potassium Chloride can be altered from 4.5 to 20 mM depending on the NaV subtype and assay sensitivity.
6) Wash cell plates three times with 100 μL per well of Bath1, leaving 25 μL of residual volume. Then transfer 25 uL per well from Compound Plates to Cell Plates. Incubate for 20-35 minutes at room temp/ambient condition
7) Read Plate on E-VIPR. Use the current-controlled amplifier to deliver stimulation wave pulses for typically 9 seconds and a scan rate of 400 Hz. A pre-stimulus recording is performed for 0.5 seconds to obtain the un-stimulated intensities baseline. […]

T1 sequence (Q15858 whole entry): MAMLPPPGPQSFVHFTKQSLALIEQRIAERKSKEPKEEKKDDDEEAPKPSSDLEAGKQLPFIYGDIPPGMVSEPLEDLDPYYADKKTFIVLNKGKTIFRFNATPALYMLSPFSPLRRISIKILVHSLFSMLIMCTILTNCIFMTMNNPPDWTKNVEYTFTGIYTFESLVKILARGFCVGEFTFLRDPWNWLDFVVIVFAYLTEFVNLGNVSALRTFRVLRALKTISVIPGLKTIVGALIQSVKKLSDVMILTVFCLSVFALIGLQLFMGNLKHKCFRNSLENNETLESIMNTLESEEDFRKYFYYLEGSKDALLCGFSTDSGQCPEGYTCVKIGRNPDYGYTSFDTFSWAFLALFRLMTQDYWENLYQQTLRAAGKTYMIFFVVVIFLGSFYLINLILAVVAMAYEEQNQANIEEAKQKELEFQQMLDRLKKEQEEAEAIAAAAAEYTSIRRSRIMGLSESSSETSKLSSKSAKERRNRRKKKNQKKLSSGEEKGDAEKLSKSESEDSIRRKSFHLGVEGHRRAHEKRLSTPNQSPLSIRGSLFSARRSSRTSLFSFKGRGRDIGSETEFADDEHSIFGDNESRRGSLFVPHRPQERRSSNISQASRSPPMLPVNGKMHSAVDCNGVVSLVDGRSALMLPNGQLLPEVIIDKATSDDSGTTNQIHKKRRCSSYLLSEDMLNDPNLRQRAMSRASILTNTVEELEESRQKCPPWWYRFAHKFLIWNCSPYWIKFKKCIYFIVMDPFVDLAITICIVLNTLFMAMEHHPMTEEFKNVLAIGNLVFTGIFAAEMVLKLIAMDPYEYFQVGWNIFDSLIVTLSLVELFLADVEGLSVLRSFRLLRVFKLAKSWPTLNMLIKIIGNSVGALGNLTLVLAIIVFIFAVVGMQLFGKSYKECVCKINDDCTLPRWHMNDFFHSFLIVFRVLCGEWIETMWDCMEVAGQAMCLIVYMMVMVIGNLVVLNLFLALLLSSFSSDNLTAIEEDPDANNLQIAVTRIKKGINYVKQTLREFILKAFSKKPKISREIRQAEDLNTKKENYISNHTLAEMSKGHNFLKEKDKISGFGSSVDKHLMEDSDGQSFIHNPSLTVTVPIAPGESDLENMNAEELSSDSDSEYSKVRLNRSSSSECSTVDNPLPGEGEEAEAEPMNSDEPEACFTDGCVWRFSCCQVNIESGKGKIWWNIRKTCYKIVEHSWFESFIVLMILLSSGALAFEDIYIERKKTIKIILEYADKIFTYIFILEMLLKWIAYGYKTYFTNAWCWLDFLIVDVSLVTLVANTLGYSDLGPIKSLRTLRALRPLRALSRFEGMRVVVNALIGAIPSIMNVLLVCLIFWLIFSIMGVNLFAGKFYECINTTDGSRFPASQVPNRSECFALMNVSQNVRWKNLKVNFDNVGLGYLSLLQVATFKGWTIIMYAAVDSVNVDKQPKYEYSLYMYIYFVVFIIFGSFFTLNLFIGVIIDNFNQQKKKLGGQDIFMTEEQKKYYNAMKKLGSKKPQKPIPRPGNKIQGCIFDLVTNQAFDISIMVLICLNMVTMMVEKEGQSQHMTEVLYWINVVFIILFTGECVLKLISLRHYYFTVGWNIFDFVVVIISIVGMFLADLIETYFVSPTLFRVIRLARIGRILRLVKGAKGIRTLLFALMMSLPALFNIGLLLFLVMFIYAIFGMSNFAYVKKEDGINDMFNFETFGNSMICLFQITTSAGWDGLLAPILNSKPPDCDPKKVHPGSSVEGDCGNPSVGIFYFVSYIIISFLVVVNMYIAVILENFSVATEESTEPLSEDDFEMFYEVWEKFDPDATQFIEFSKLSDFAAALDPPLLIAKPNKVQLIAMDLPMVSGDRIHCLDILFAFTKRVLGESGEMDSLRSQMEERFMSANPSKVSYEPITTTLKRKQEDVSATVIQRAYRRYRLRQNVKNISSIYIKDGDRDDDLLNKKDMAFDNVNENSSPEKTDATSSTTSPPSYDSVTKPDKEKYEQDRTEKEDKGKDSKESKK

Structure (SMILES)	IC50
O=C(c1ccc(OCCOC(F)(F)F)c(Cl)c1)N1CC[C@]2(c3ccccn3)COC2C1 (some centres unmarked) [Compound 201]	≤ 2 µM
COc1cc(C(=O)N2CC[C@@]3(c4ccn(C)n4)OCOC3C2)ccc1OCCOC(F)(F)F (some centres unmarked) [Compound 46]	≤ 2 µM
O=C(c1cnc(OCCOC(F)(F)F)c(Cl)c1)N1CC[C@]2(c3ccccn3)OCOC2C1 (some centres unmarked) [Compound 294]	≤ 2 µM
COc1cc(C(=O)N2CC[C@]3(c4cccc(F)c4F)OCOC3C2)ccc1O[C@H](C)C(F)(F)F (some centres unmarked) [Compound 257]	≤ 2 µM
COc1cc(C(=O)N2CC[C@]3(c4nccs4)OCOC3C2)ccc1OCCOC(F)(F)F (some centres unmarked) [Compound 85]	≤ 2 µM
Cc1nc(C(=O)N2CC[C@]3(c4ccccn4)OCOC3C2)ccc1OCCOC(F)(F)F (some centres unmarked) [Compound 160]	≤ 2 µM
[2H]C1([2H])OC2CN(C(=O)c3ccc(OCCOC(F)(F)F)c(OC)c3)CC[C@]2(c2ccccn2)O1 (some centres unmarked) [Compound 305]	≤ 2 µM
O=C(c1ccc(C2(O)CCC2)cc1)N1CCC2(c3ccccc3)CC2C1 (centres unmarked) [Compound 28]	≤ 2 µM
Cc1cccc([C@]23CCN(C(=O)c4ccc(OCCOC(F)(F)F)c(C)c4)CC2OCO3)n1 (some centres unmarked) [Compound 194]	≤ 2 µM
COc1cccnc1[C@]12CCN(C(=O)c3ccc(OCC(C)(C)F)c(C)c3)CC1OCO2 (some centres unmarked) [Compound 34]	≤ 2 µM
Cc1nc(C(=O)N2CCC3(c4ccccc4)OCC3C2)ccc1OC(C)C (centres unmarked) [Compound 56]	≤ 2 µM
COc1cc(C(=O)N2CC[C@]3(c4cccc(F)c4)OCOC3C2)ccc1OCC1CC(F)C1 (some centres unmarked) [Compound 240]	≤ 2 µM
COc1nc(C(=O)N2CC[C@]3(c4ccccn4)OCOC3C2)ccc1OCC1(C(F)(F)F)CC1 (some centres unmarked) [Compound 130]	≤ 2 µM
COc1nc(C(=O)N2CC[C@]3(c4cccc(F)c4)OCOC3C2)ccc1OC(C)C(F)(F)F (some centres unmarked) [Compound 264]	≤ 2 µM
CC(C)(O)COc1ccc(C(=O)N2CC[C@]3(c4nccs4)OCOC3C2)cc1Cl (some centres unmarked) [Compound 22]	2 to 5 µM
COc1cc(C(=O)N2CC[C@]3(c4cccc(Cl)c4)OCOC3C2)ccc1OCC1CC(F)(F)C1 (some centres unmarked) [Compound 176]	≤ 2 µM
COc1cc(C(=O)N2CC[C@]3(c4cccc(C#N)c4)OCOC3C2)ccc1OC(C)C(F)(F)F (some centres unmarked) [Compound 290]	> 5 µM
COc1nc(C(=O)N2CC[C@]3(c4cccc(F)c4)OCOC3C2)ccc1OCC1C2CC(F)(F)CC12 (some centres unmarked) [Compound 196]	≤ 2 µM
Cc1cc(C(=O)N2CC[C@]3(c4nccs4)OCOC3C2)ccc1OCCOC(F)(F)F (some centres unmarked) [Compound 167]	≤ 2 µM
COc1cc(C(=O)N2CC[C@]3(c4cccc(F)c4)OCOC3C2)ccc1OCC1CCC1 (some centres unmarked) [Compound 241]	2 to 5 µM
COc1nc(C(=O)N2CC[C@]3(c4ccccn4)OCOC3C2)ccc1OCCOC(F)(F)F (some centres unmarked) [Compound 107]	≤ 2 µM
Cc1cc(C(=O)N2CCC3(c4ccccc4)CC3C2)ccc1OCC(C)(C)O (centres unmarked) [Compound 171]	≤ 2 µM
Cc1cc(C(=O)N2CC[C@]3(c4ncccc4Cl)OCOC3C2)ccc1OCCOC(F)(F)F (some centres unmarked) [Compound 182]	≤ 2 µM
O=C(c1ccc(OCC(F)(F)C(F)F)c(Cl)c1)N1CC[C@]2(c3ccccn3)OCOC2C1 (some centres unmarked) [Compound 166]	≤ 2 µM
O=C(c1ccc(OCCOC(F)(F)F)c(Cl)c1)N1CC[C@@]2(c3ccccn3)C(C1)C2(F)F (some centres unmarked) [Compound 247]	≤ 2 µM
O=C(c1ccc(OCC2(C(F)(F)F)CC2)c(Cl)c1)N1CC[C@]2(c3ccccn3)COC2C1 (some centres unmarked) [Compound 207]	≤ 2 µM
CC(C)(F)COc1ccc(C(=O)N2CC[C@@]3(c4cccc(F)c4)OCOC3C2)cc1Cl (some centres unmarked) [Compound 217]	2 to 5 µM

Structure (SMILES)	IC50
Cc1cc(C(=O)N2CC[C@@]3(c4ccccc4)OCOC3C2)ccc1OCC(C)(C)F (some centres unmarked) [Compound 120]	≤ 2 µM
COc1cc(C(=O)N2CC[C@]3(c4cccc(Cl)c4)OCOC3C2)ccc1OCCOC(F)(F)F (some centres unmarked) [Compound 283]	≤ 2 µM
Cc1cc(C(=O)N2CC[C@]3(c4ncccn4)OCOC3C2)ccc1OC(C)C (some centres unmarked) [Compound 5]	> 5 µM
O=C(c1ccc(OCC2CC2(F)F)c(C(F)(F)F)c1)N1CC[C@]2(c3ccccn3)OCOC2C1 (some centres unmarked) [Compound 84]	≤ 2 µM
O=C(c1ccc(OCCOC(F)(F)F)c(F)c1)N1CC[C@@]2(c3nccs3)OCOC2C1 (some centres unmarked) [Compound 59]	≤ 2 µM
Cc1cc(C(=O)N2CC[C@@]3(c4ccccc4)OCOC3C2)ccc1C(C)(C)O (some centres unmarked) [Compound 49]	> 5 µM
COc1cc(C(=O)N2CC[C@@]3(c4ccc(F)cc4)OCOC3C2)ccc1COCCC(F)(F)F (some centres unmarked) [Compound 48]	≤ 2 µM
Cc1cc(C(=O)N2CC[C@]3(c4ccccc4)OCOC3C2)ccc1OCC(C)(C)O (some centres unmarked) [Compound 75]	≤ 2 µM
COc1ccnc([C@]23CCN(C(=O)c4ccc(OCC5CC(F)(F)C5)c(OC)n4)CC2OCO3)c1 (some centres unmarked) [Compound 246]	≤ 2 µM
O=C(c1cccc2cccnc12)N1CC[C@@]2(c3ccccc3)OCOC2C1 (some centres unmarked) [Compound 43]	2 to 5 µM
COc1cc(C(=O)N2CC[C@]3(c4ccc(F)cc4)OCOC3C2)ccc1OCC(C)(C)F (some centres unmarked) [Compound 38]	≤ 2 µM
COc1cc(C(=O)N2CC[C@]3(c4ccccc4)OCOC3C2)ccc1OCCOC(F)(F)F (some centres unmarked) [Compound 150]	≤ 2 µM
CC(Oc1ccc(C(=O)N2CC[C@]3(c4ccccn4)OCOC3C2)cc1C(F)(F)F)C(F)(F)F (some centres unmarked) [Compound 311]	≤ 2 µM
O=C(c1ccc(OCCOC(F)(F)F)c(Cl)c1)N1CC[C@@]2(c3ccccn3)COC2C1 (some centres unmarked) [Compound 253]	≤ 2 µM
COc1cc(C(=O)N2CC[C@]3(c4ccccc4)CC3C2)ccc1OCC(C)(C)O (some centres unmarked) [Compound 104]	≤ 2 µM
COc1cc(C(=O)N2CC[C@]3(c4cccc(F)c4)OCOC3C2)ccc1OCCOC(F)(F)F (some centres unmarked) [Compound 228]	≤ 2 µM
CC(C)COc1ccc(C(=O)N2CCC3(c4ccccc4)CC3C2)nc1 (centres unmarked) [Compound 21]	2 to 5 µM
Cc1nc([C@]23CCN(C(=O)c4ccc(OCC(C)(C)F)c(C)c4)CC2OCO3)cs1 (some centres unmarked) [Compound 74]	≤ 2 µM
COc1cc(C(=O)N2CCC3(c4ccccn4)OCOC3C2)ccc1OCCOC(F)(F)F (centres unmarked) [Compound 68]	≤ 2 µM
COc1cc(C(=O)N2CC[C@]3(c4cc(F)ccc4F)OCOC3C2)ccc1OC(C)C(F)(F)F (some centres unmarked) [Compound 286]	≤ 2 µM
CC(C)(C)OCCOc1ccc(C(=O)N2CC[C@]3(c4ccccn4)OCOC3C2)cc1Cl (some centres unmarked) [Compound 69]	≤ 2 µM
COc1cc(C(=O)N2CC[C@]3(c4cccc(C#N)c4)OCOC3C2)ccc1OCCOC(F)(F)F (some centres unmarked) [Compound 293]	≤ 2 µM
O=C(c1ccc(S(=O)(=O)NC2CC2)cc1)N1CCC2(c3ccccc3)CC2C1 (centres unmarked) [Compound 26]	2 to 5 µM
O=C(c1ccc(OCCOC(F)(F)F)c(Cl)c1)N1CC[C@@]2(c3ccccn3)COC2C1 (some centres unmarked) [Compound 202]	≤ 2 µM
O=C(c1ccc(OCCC(F)(F)F)c(C(F)(F)F)c1)N1CC[C@]2(c3ccccn3)OCOC2C1 (some centres unmarked) [Compound 128]	≤ 2 µM
Cc1cc(C(=O)N2CC[C@@]3(c4ccccc4)C[C@@H]3C2)ccc1OCC(C)(C)O [Compound 114]	≤ 2 µM
